Patent US9790207B2, “Pan-genomic inhibitors of NS5A protein encoded by HCV, pharmaceutical compositions, intermediates for inhibitor synthesis, and their synthesis and application methods” (priority 2015, dated 2017)
Counter-ions that a name gives are not always drawn. Like-named read-outs stand apart in the source and are kept apart here.

Experiments:
HCV gT1b replicon = assay: HCV replicon assay, gT1b; assay type: cell-based, Hepatitis C virus (HCV); conditions: Hepatitis C virus, GT1B, Huh-7, Huh7 replicon cells, mean value
Method: The HCV replicon assay was used to determine the antiviral activity of compounds of general formula 2 (test compounds). The test cell line used in the HCV Replicon Assay was the human hepatoma cell line Huh7 incorporating the HCV replicons synthesized by an outside vendor.
96-well plates were seeded with cells at a density of 7.5×10^3 cells per well in 50 μl of assay media. The compound stock solution was made up freshly in an assay medium (DMEM 1×, Cellgro; cat. #10-013-CV) as a 2× stock. A total of 11 serial 3-fold dilutions of test compounds were prepared from the 2× stock in the assay media ranging from 20 nM-0.2 pM final concentrations. At least 4 hours after seeding the cells, compound treatment was initiated by adding 50 μl of compound dilution to the plates. The final concentrations of compound therefore ranged from 10 nM to 0.1 pM when diluted 1:1 in culture media. The final DMSO concentration was 0.5%. Cells and inhibitors were incubated for 3 days at 37° C./5% CO2. The media was removed from the plates by gentle tapping. The cells were fixed with 100 μl 1:1 acetone:methanol for 1 minute, washed three times with PBS buffer, and then blocked with 150 μl/well 10% Fetal Bovine Serum (FBS) in PBS for 1 hour at room temperature. The cells were then washed three times with PBS buffer and incubated with 100 μl/well anti-hepatitis C core mAb (Affinity BioReagents; cat. # MA1-080, 1 mg/ml stock diluted 1:4,000 in 10% FBS-PBS) for 2 hours at 37° C. Then, the cells were washed three times with PBS and incubated with 100 μl/well HRP-Goat Anti-Mouse antibody (diluted 1:3.500 in 10% FBS-PBS) for 1 hour at 37° C. The cells were then washed three times with PBS and developed with an OPD solution, 100 μl/well (1 OPD tablet+12 ml citrate/phosphate buffer+5 μl 30% H2O2 per plate), for 30 minutes in the dark at room temperature. The reaction was stopped with 2N H2SO4 (100 μl/well), and the absorbance was measured at A490 X on a Victor^3 V 1420 multilabel counter (Perkin Elmer).

[1] = Cytotoxicity, cell viability by ATPLite Kit; assay type: cell-based, human; conditions: human, 10% FBS; for inhibition at 96 h: Huh7 cells (human hepatoma cell line), maximal inhibition, read-out: Cytotox gT1b 10% FBS max. inh.
Method: The cytotoxicity of the test compounds was studied in parallel using the same cell line, Huh7. Cell viability was determined using the ATPLite Kit (Perkin-Elmer, Boston, USA), according to manufacturer's instructions. 96-well black/transparent bottom plates were seeded with cells at a density of 7.5×10^3 cells per well in 50 μl medium. After 18 hours, compound treatment was initiated by adding 50 μl of compound dilution into the plates. Each compound dilution was tested in triplicates. The cells and inhibitors were then incubated for 96 hours at 37° C./5% CO2. The plates were washed twice with PBS (0.2 ml/well), and then lysed by adding lysis buffer, 0.05 ml/well (all reagents were included with the ATPLite Kit). After rocking for 5 min on a rocking platform, substrate buffer was added (0.05 ml/well). After additional 5-min incubation, the plates were kept in dark for 10 min, and the luminescence was read using TopCount NXT (Packard, Perkin Elmer). CC50 values for all test compounds were determined using XLfit 4.1 software (Table 2).

[2] = 10% FBS, read-out: gT1b 10% FBS, EC50 (pM) mean
[3] = 40% NHS, read-out: gT1b 40% NHS, EC50 (pM) mean

COC(=O)N[C@H](C(=O)N1CCC[C@H]1c1ncc(-c2ccc(C#CC#Cc3cnc([C@@H]4CCCN4C(=O)[C@H](NC(=O)OC)c4ccccc4)[nH]3)c(Sc3ccccc3)c2)[nH]1)C(C)C [2(20)•2HCl, [(S)-1-((S)-2-{5-[4-(4-{2-[(S)-1-((R)-2-Methoxycarbonylamino-2-phenyl-acetyl)-pyrrolidin-2-yl]-3H-imidazol-4-yl}-buta-1,3-diynyl)-3-phenylsulfanyl-phenyl]-1H-imidazol-2-yl}-pyrrolidine-1-carbonyl)-2-methyl-propyl]-carbamic acid methyl ester dihydrochloride]
EC50 (HCV gT1b replicon; [2]): 1.7 pM
EC50 (HCV gT1b replicon; [3]): 9.02 pM
inhibition at 96 h [1]: 43%

COC(=O)N[C@H](C(=O)N1CCC[C@H]1c1ncc(C#CC#Cc2ccc(-c3cnc([C@@H]4CCCN4C(=O)[C@@H](NC(=O)OC)C(C)C)[nH]3)cc2-c2ccc3ccccc3c2)[nH]1)C(C)C [2(4)•2HCl, [(S)-1-((S)-2-{5-[4-(4-{2-[(S)-1-((S)-2-Methoxycarbonylamino-3-methyl-butyryl)-pyrrolidin-2-yl]-3H-imidazol-4-yl}-2-naphthalen-2-yl-phenyl)-buta-1,3-diynyl]-1H-imidazol-2-yl}-pyrrolidine-1-carbonyl)-2-methyl-propyl]-carbamic acid methyl ester dihydrochloride]
EC50 (HCV gT1b replicon; [2]): 1.56 pM
EC50 (HCV gT1b replicon; [3]): 16.3 pM
inhibition at 96 h [1]: 31%

COC(=O)N[C@H](C(=O)N1CCC[C@H]1c1ncc(-c2ccc(C#CC#Cc3cnc([C@@H]4CCCN4C(=O)[C@H](NC(=O)OC)c4ccccc4)[nH]3)c(-c3ccc(C(C)(C)C)cc3)c2)[nH]1)C(C)C [2(11)•2HCl, [(S)-1-((S)-2-{5-[4′-tert-Butyl-6-(4-{2-[(S)-1-((R)-2-methoxycarbonylamino-2-phenyl-acetyl)-pyrrolidin-2-yl]-3H-imidazol-4-yl}-buta-1,3-diynyl)-biphenyl-3-yl]-1H-imidazol-2-yl}-pyrrolidine-1-carbonyl)-2-methyl-propyl]-carbamic acid methyl ester dihydrochloride]
EC50 (HCV gT1b replicon; [2]): 1.24 pM
EC50 (HCV gT1b replicon; [3]): 10.7 pM
inhibition at 96 h [1]: 29%

COC(=O)N[C@H](C(=O)N1CCC[C@H]1c1ncc(-c2ccc(C#CC#Cc3cnc([C@@H]4CCCN4C(=O)[C@H](NC(=O)OC)c4ccccc4)[nH]3)c(-c3cccc(-c4ccccc4)c3)c2)[nH]1)C(C)C [2(12)•2HCl, [(S)-1-((S)-2-{5-[6-(4-{2-[(S)-1-((R)-2-Methoxycarbonylamino-2-phenyl-acetyl)-pyrrolidin-2-yl]-3H-imidazol-4-yl}-buta-1,3-diynyl)-[1,1′;3′,1″]terphenyl-3-yl]-1H-imidazol-2-yl}-pyrrolidine-1-carbonyl)-2-methyl-propyl]-carbamic acid methyl ester dihydrochloride]
EC50 (HCV gT1b replicon; [2]): 1.79 pM
EC50 (HCV gT1b replicon; [3]): 13.4 pM
inhibition at 96 h [1]: 29%

COC(=O)N[C@H](C(=O)N1CCC[C@H]1c1ncc(C#CC#Cc2ccc(-c3cnc([C@@H]4CCCN4C(=O)[C@@H](NC(=O)OC)C(C)C)[nH]3)cc2-c2ccccc2)[nH]1)C(C)C [2(1)•2HCl, [(S)-1-((S)-2-{5-[4-(5-{2-[(S)-1-((S)-2-Methoxycarbonylamino-3-methyl-butyryl)-pyrrolidin-2-yl]-3H-imidazol-4-yl}-biphenyl-2-yl)-buta-1,3-diynyl]-1H-imidazol-2-yl}-pyrrolidine-1-carbonyl)-2-methyl-propyl]-carbamic acid methyl ester dihydrochloride]
EC50 (HCV gT1b replicon; [2]): 1.79 pM
EC50 (HCV gT1b replicon; [3]): 12.4 pM
inhibition at 96 h [1]: 42%

COC(=O)N[C@H](C(=O)N1CCC[C@H]1c1ncc(C#CC#Cc2ccc(-c3cnc([C@@H]4CCCN4C(=O)[C@@H](NC(=O)OC)C(C)C)[nH]3)cc2-c2cccc(C(C)(C)C)c2)[nH]1)C(C)C [2(2)•2HCl, [(S)-1-((S)-2-{5-[4-(3′-tert-Butyl-5-{2-[(S)-1-((S)-2-methoxycarbonylamino-3-methyl-butyryl)-pyrrolidin-2-yl]-3H-imidazol-4-yl}-biphenyl-2-yl)-buta-1,3-diynyl]-1H-imidazol-2-yl}-pyrrolidine-1-carbonyl)-2-methyl-propyl]-carbamic acid methyl ester dihydrochloride]
EC50 (HCV gT1b replicon; [2]): 1.67 pM
EC50 (HCV gT1b replicon; [3]): 6.6 pM
inhibition at 96 h [1]: 38%

COC(=O)N[C@H](C(=O)N1CCC[C@H]1c1ncc(-c2ccc(C#CC#Cc3cnc([C@@H]4CCCN4C(=O)[C@H](NC(=O)OC)c4ccccc4)[nH]3)c(-c3ccc(N4CCN(C)CC4)cc3)c2)[nH]1)C(C)C [2(15)•2HCl, [(S)-1-((S)-2-{5-[4′-(4-Methyl-piperazin-1-yl)-6-(4-{2-[(S)-1-((R)-2-methoxycarbonylamino-2-phenyl-acetyl)-pyrrolidin-2-yl]-3H-imidazol-4-yl}-buta-1,3-diynyl)-biphenyl-3-yl]-1H-imidazol-2-yl}-pyrrolidine-1-carbonyl)-2-methyl-propyl]-carbamic acid methyl ester tetrahydrochloride]
EC50 (HCV gT1b replicon; [2]): 3.65 pM
EC50 (HCV gT1b replicon; [3]): 23.9 pM
inhibition at 96 h [1]: 82%
CC50 at 96 h ([1]; Huh7 human hepatoma cells, read-out: Cytotox gT1b 10% FBS CC50): 16200 nM

COC(=O)N[C@H](C(=O)N1CCC[C@H]1c1ncc(-c2ccc(C#CC#Cc3cnc([C@@H]4CCCN4C(=O)[C@H](NC(=O)OC)c4ccccc4)[nH]3)c(-c3cccc(C(C)(C)C)c3)c2)[nH]1)C(C)C [2(10)•2HCl, [(S)-1-((S)-2-{5-[3′-tert-Butyl-6-(4-{2-[(S)-1-((R)-2-methoxycarbonylamino-2-phenyl-acetyl)-pyrrolidin-2-yl]-3H-imidazol-4-yl}-buta-1,3-diynyl)-biphenyl-3-yl]-1H-imidazol-2-yl}-pyrrolidine-1-carbonyl)-2-methyl-propyl]-carbamic acid methyl ester dihydrochloride]
EC50 (HCV gT1b replicon; [2]): 1.22 pM
EC50 (HCV gT1b replicon; [3]): 8.13 pM
inhibition at 96 h [1]: 37%

COC(=O)N[C@H](C(=O)N1CCC[C@H]1c1ncc(-c2ccc(C#CC#Cc3cnc([C@@H]4CCCN4C(=O)[C@H](NC(=O)OC)c4ccccc4)[nH]3)c(-c3ccc(-c4ccccc4)cc3)c2)[nH]1)C(C)C [2(13)•2HCl, [(S)-1-((S)-2-{5-[6-(4-{2-[(S)-1-((R)-2-Methoxycarbonylamino-2-phenyl-acetyl)-pyrrolidin-2-yl]-3H-imidazol-4-yl}-buta-1,3-diynyl)-[1,1′;4′,1″]terphenyl-3-yl]-1H-imidazol-2-yl}-pyrrolidine-1-carbonyl)-2-methyl-propyl]-carbamic acid methyl ester dihydrochloride]
EC50 (HCV gT1b replicon; [2]): 1.61 pM
EC50 (HCV gT1b replicon; [3]): 14.4 pM
inhibition at 96 h [1]: 24%

COC(=O)N[C@H](C(=O)N1CCC[C@H]1c1ncc(C#CC#Cc2ccc(-c3cnc([C@@H]4CCCN4C(=O)[C@H](NC(=O)OC)c4ccccc4)[nH]3)cc2-c2ccccc2)[nH]1)C(C)C [2(30)•2HCl, [(S)-1-((S)-2-{5-[4-(5-{2-[(S)-1-((R)-2-Methoxycarbonylamino-2-phenyl-acetyl)-pyrrolidin-2-yl]-3H-imidazol-4-yl}-biphenyl-2-yl)-buta-1,3-diynyl]-1H-imidazol-2-yl}-pyrrolidine-1-carbonyl)-2-methyl-propyl]-carbamic acid methyl ester dihydrochloride]
EC50 (HCV gT1b replicon; [2]): 2.1 pM
EC50 (HCV gT1b replicon; [3]): 25.3 pM
inhibition at 96 h [1]: 33%

COC(=O)N[C@H](C(=O)N1CCC[C@H]1c1ncc(-c2ccc(C#CC#Cc3cnc([C@@H]4CCCN4C(=O)[C@H](NC(=O)OC)c4ccccc4)[nH]3)c(-c3cccnc3)c2)[nH]1)C(C)C [2(16)•2HCl, [(S)-1-((S)-2-{5-[4-(4-{2-[(S)-1-((R)-2-Methoxycarbonylamino-2-phenyl-acetyl)-pyrrolidin-2-yl]-3H-imidazol-4-yl}-buta-1,3-diynyl)-3-pyridin-3-yl-phenyl]-1H-imidazol-2-yl}-pyrrolidine-1-carbonyl)-2-methyl-propyl]-carbamic acid methyl ester trihydrochloride]
EC50 (HCV gT1b replicon; [2]): 4.7 pM
EC50 (HCV gT1b replicon; [3]): 36.2 pM
inhibition at 96 h [1]: 32%
